Experiments:
C57BL/6J mice = experiment: Biliary flow and hepatic secretion of biliary lipids; type: in vivo, mouse
Description: (§1) Surgery and sample harvest. The groups were maintained for 14 days (protocol #1) or 30 days (protocol #2) in the different experimental conditions. During the last three days of the protocols, 24 h depositions were collected from the different groups (pool) to determine the fecal excretion of neutral sterols (cholesterol) and acidic sterols (bile salts). At the end of the time established in the protocols, the mice were anesthetized (between 08:00-10:00 AM) with an intraperitoneal pentobarbital injection in doses of 4.5 mg per 100 gr body weight (Amigo et al., 2000) and subjected to surgery. Standardized surgery consists in an extended […] and visualization of abdominal organs, including liver, biliary tree and gallbladder. First, we performed a resection of the gallbladder (cholecystectomy), with the cystic duct previously ligated (Amigo et al., 2002; Amigo et al., 2000; Amigo et al., 2003b). The gallbladder is removed and visually inspected to determine the presence of gallstones. Then, the gallbladder bile is extracted to analyze the presence of cholesterol crystals in the fresh samples under the microscope with polarized light (20×). Aliquots are stored at −20° C. for subsequent chemical analysis. Afterwards, the common biliary duct is cannulated (biliary fistula) with a P-10 polyethylene cannula to collect bile during 15 minutes, determine bile flow by gravimetry (1 g bile=1 ml; bile flow is expressed as μl/min/g of mouse liver) and for posterior chemical analysis of biliary lipids and glutathione, as specified later. […] Then, the liver is removed, weighted, frozen in liquid nitrogen and stored at −80 for subsequent analyses. The plasma is separated by centrifugation at 1,500 rpm and stored at −80° C. for later analysis. The animal protocols were approved by our institution Ethics Committee and the animals were treated according to international care rules for experimental animals.
Intestinal absorption of cholesterol and bile salts. The capacity of Ezetimibe to inhibit cholesterol and bile salt absorption was indirectly determined by quantification of neutral sterols (cholesterol) and acidic sterols (bile acids) present in the feces collected on day 12, 13 and 14 of the experiment (three days). In order to determine cholesterol (neutral sterols) fecal excretion, the feces were dried at 50° C. for three days and then weighted to obtain an average of fecal excretion per day (in grams). […] 50 μl aliquots, in duplicate, are dried at room temperature, and total cholesterol is quantified according to the enzymatic method described above. The values obtained are expressed as μmoles cholesterol/day/100 g of mouse (Miettinen et al., 1965). […]

[1] = tested on: cholesterol and bile salt absorption; experiment: Intestinal absorption of cholesterol and bile salts by fecal excretion of neutral and acidic sterols; type: in vivo, mouse; conditions: for Fecal excretion of bile acids / Fecal excretion of neutral sterols: pooled feces; for Fecal excretion of bile acids: days 12-14; for Fecal excretion of neutral sterols: last three days of 14
Description: as §1
Intestinal absorption of cholesterol and bile salts. The capacity of Ezetimibe to inhibit cholesterol and bile salt absorption was indirectly determined by quantification of neutral sterols (cholesterol) and acidic sterols (bile acids) present in the feces collected on day 12, 13 and 14 of the experiment (three days). In order to determine cholesterol (neutral sterols) fecal excretion, the feces were dried at 50° C. for three days and then weighted to obtain an average of fecal excretion per day (in grams). The feces were homogenized in a mortar, and 5 ml 2N NaOH:methanol, 1:1 are added per 100 mg (dry weight) aliquots of the homogenate. The sample is vortex and incubated at 60° C. for 1 h for saponification, then it is cooled and 5 ml petroleum ether is added followed by vigorous agitation to obtain the separation of the hydrophobic and hydrophilic phases. The samples are then centrifuged at 1,000 rpm for 10 minutes and the hydrophobic phase (upper layer) is recovered. Second and third extractions are performed by adding 5 ml petroleum ether to the hydrophilic phase. The hydrophobic phases are dried under gaseous nitrogen and the lipids are resuspended in 1 ml chloroform. 50 μl aliquots, in duplicate, are dried at room temperature, and total cholesterol is quantified according to the enzymatic method described above. The values obtained are expressed as μmoles cholesterol/day/100 g of mouse (Miettinen et al., 1965). In order to determine fecal excretion of bile acids the mice feces were collected during three days (days 12-14), dried at 50° C. for one week and weighted. The feces are then homogenized in a mortar; (^14C) cholic acid, 200,000 cpm is added to 1 g of the homogenate to determine the degree of recovery. The samples are then mixed with NaBr, NaOH and HCl, dissolved in ethanol and incubated at 120° C. for 8 h in a reflux system. The hydrolyzed fecal samples are resuspended in NaOH and dried under gaseous N2. The pellet obtained is resuspended in ethanol and run through Sep-Pak columns to eliminate all bile salts contaminants. […]

## O=C1[C@H](CC[C@H](O)c2ccc(F)cc2)[C@@H](c2ccc(O)cc2)N1c1ccc(F)cc1 [Ezetimibe, (−)-1-(4-fluorophenyl)-(3R)-[3-(4-fluorophenyl)-(.S)-hydroxypropyl]-(4S)-(4-hydroxyphenyl)-2-azetidinone]
C57BL/6J mice; lithogenic diet
  biliary flow larger than in the group on lithogenic diet without ezetimibe (significant): 50-60%
C57BL/6J mice; lithogenic diet (FIG. 3)
  secretion of bile salts and phospholipids vs group without ezetimibe: increase
  secretion of biliary cholesterol vs group without ezetimibe: did not associate to a greater secretion
C57BL/6J mice; low cholesterol control diet
  increase in biliary flow (slight, non-significant): 30-40%
[1]; Chow + Ezetimibe
  Fecal excretion of bile acids: 55.42 μmol/day/100 g mouse
  Fecal excretion of neutral sterols: 19.98 μmol/day/100 g mouse
[1]; Lithogenic + Ezetimibe
  Fecal excretion of bile acids: 909.20 μmol/day/100 g mouse
  Fecal excretion of neutral sterols: 165.79 μmol/day/100 g mouse
[1]; both on control and lithogenic diets
  effect on fecal excretion of bile salts: does not significantly affect
[1]; control diet
  increment of fecal excretion of neutral sterols vs control diet without Ezetimibe: 37%
[1]; lithogenic diet
  fecal excretion of neutral sterols (cholesterol) higher than in mice not treated with Ezetimibe: 55%

Reference: US8361999B2, “Methods of treating cholesterol gallstone disease with ezetimibe” (Pontificia Universidad Catolica de Chile, priority 2005, dated 2013)
